In publication PMC11767344, “Entire Encapsulation of Thymopentin by Extended Biphen[3]arene Carboxylate for Improving Plasma Stability” (Molecules, 2025):
Ends that are not written are not given here.

Tests used:
[1] = Plasma stability of thymopentin by HPLC; assay type: in vitro ADME; conditions: thymopentin 1.0 mM, equal amount of rat plasma, 37 °C, HPLC-UV 210 nm
Method: To test the above hypothesis, we compared the plasma stability of free thymopentin, a host–guest mixture of thymopentin/ExBP3C, thymopentin/CP5A, and thymopentin/cucurbit[7]uril (CB[7]) using high-performance liquid chromatography (HPLC). According to a previously reported method, the above samples (all containing 1.00 mM of thymopentin) were dissolved in deionized water and then incubated with an equal amount of rat plasma at 37 °C. At predetermined intervals, 100 μL of solution in various groups were withdrawn and quenched with 100 μL of acetonitrile containing 0.1% trifluoroacetic acid (TFA). HPLC analysis was performed on an LC-10AT VP Plus liquid chromatography system with an SPD-10 A VP Plus UV–Vis detector operating at 210 nm and quantified using Shimadzu LC solution Lite. The column used was a C18 reverse-phase column, and the mobile phase was composed of solvent A (water containing 0.1% TFA) and solvent B (70% acetonitrile and 0.1% TFA); the injection volume and flow rate were respectively set as 20 μL and 1.00 mL∙min^−1. The appropriate calibration curve was first derived to calculate the concentration of thymopentin based on the above-mentioned procedure (Figure 5a). […]
Figure 5 (a) Calibration curve obtained by HPLC and used to calculate thymopentin concentration in plasma stability. […] (2.0 mM) as determined by HPLC.

[2] = tested on: rabbit red blood cells (rRBCs); experiment: Hemolysis assay; assay type: cell-based; conditions: 320 μM, 37 °C, 24 h; 1% Triton X-100 defined as 100%; mean ± SD, n = 3
Method: (§1) In practical biomedical applications, the safety profiles of supplementary materials are of great concern. Here we preliminarily investigated the cytotoxicity of ExBP3C on a mouse fibroblast cell line (L929) and its hemolytic activity toward rabbit red blood cells (rRBCs). ExBP3C was first dissolved in deionized water and diluted to the required concentrations. For cytotoxicity studies, ExBP3C samples were added to L929 cell-containing wells, which were incubated at 37 °C under 5% CO2 for 24 h, and then the Cell Counting Kit-8 reagent was added into each well to stain for 30 min. […] For the hemolysis assay, ExBP3C samples were added to an erythrocyte suspension at 37 °C for 24 h. After that, the suspension was centrifuged at 1000 rpm for 10 min, and 100 μL of supernatant was transferred to a 96-well plate for measurement by a plate reader. […] On the basis of experimental results and prior studies, we concluded that the administration of ExBP3C at the above examination range was relatively nontoxic on a cellular level.
(§2) Figure 6 (a) Relative viability of mouse fibroblast cell line (L929) after treatment with ExBP3C for 24 h at the indicated concentrations (mean ± SD, n = 5). (b) Hemolysis of ExBP3C toward rabbit red blood cells (rRBCs) after 24 h of incubation time, and the hemolytic rate of rRBCs incubated with 1% Triton X-100 was defined as 100% (mean ± SD, n = 3).

thymopentin = target: T1, thymopentin (Homo sapiens, UniProt P42166); experiment: Isothermal titration calorimetry (ITC) of thymopentin into ExBP3C; assay type: binding; conditions: deionized water, 25 °C, ExBP3C 40 μM in cell, thymopentin 500 μM in syringe
T1 construct: purchased
Method: An isothermal microcalorimetric titration (ITC) experiment was further carried out in deionized water at 25 °C on a PEAQ-ITC to quantitatively assess the binding affinity and related thermodynamic parameters. A 300 μL solution of ExBP3C was placed in the sample cell at a concentration of 40 μM, and 70 μL of a solution of thymopentin (500 μM) was placed in the injection syringe. The titration was conducted by titration of 18 drops of thymopentin to the ExBP3C solution, and all solutions were degassed prior to titration. […] It should be noted that the binding stoichiometry between ExBP3C and thymopentin was determined to be 0.956 ± 0.011, which was very close to 1:1 and consistent with the above entire encapsulation mode (Figure 3). A larger interaction area of thymopentin/ExBP3C would facilitate the production of a stronger binding affinity.
Figure 3 ITC isotherm for the titration of thymopentin/ExBP3C in aqueous solution at room temperature (top: raw data; bottom: net reaction heat obtained from integration of calorimetric traces).

[3] = tested on: mouse fibroblast cell line (L929); experiment: Cytotoxicity, Cell Counting Kit-8; assay type: cell-based; conditions: 24 h, 37 °C, 5% CO2, CCK-8, 450 nm; even at relatively high concentrations; mean ± SD, n = 5
Method: as §1, §2

Substance | Residual thymopentin after exposure to rat plasma, in words ([1]; 30 min) | Time until thymopentin became undetectable ([1]; alone or with macrocycle 2.0 mM) | Relative hemolysis [2] | binding stoichiometry, N (sites) (thymopentin) | Cytotoxicity against L929 cells, in words [3]
RKDVY [thymopentin] | undetectable | ≤ 30 min |  |  | 
extended biphen[3]arene carboxylate [ExBP3C] |  |  | 1.92% | 0.956 ± 0.011 | minimal cytotoxicity
